From PMC7311950, “Potent Tetrahydroquinolone Eliminates Apicomplexan Parasites” (Frontiers in Cellular and Infection Microbiology, 2020)
≈ marks a conversion by molar mass, not a printed value.

Legend:
P. berghei sporozoites = test system: P. berghei sporozoites; set-up: method as in Doggett et al., 2012; Frueh et al., 2017; settings: doses between 1 and 20 mg/kg, not the prodrug; ref Doggett et al., 2012; Frueh et al., 2017; cited from earlier work
[1] = test system: T. gondii RH-YFP tachyzoites; assay: In vitro challenge assay, RH strain YFP tachyzoites in HFF; assay type: cell-based; settings: Toxoplasma gondii; RH-YFP tachyzoites in HFF; Figure 1A; read-out: Tachy IC50
Experimental: RH strain YFP Tachyzoites. Protocol was adapted from Fomovska et al. ([2012a],[b]) for HFF. HFF were cultured on a flat, clear-bottomed, black 96-well plate to 90–100% confluence. IMDM (1x, [+] glutamine, [+] 25 mM HEPES, [+] Phenol red, 10% FBS [Gibco, Denmark]) was removed and replaced with IMDM-C(1x, [+] glutamine, [+] 25 mM HEPES, [–] Phenol red, 10% FBS)[Gibco, Denmark]). RH-YFP, lysed from host cells by passing twice through a 27-gauge needle, were counted, then diluted to 32,000/mL in IMDM-C. HFF were infected with 3200 RH-YFP, then returned to 37°C, CO2 (5%) incubator for 1–2 h for infection. Various concentrations of the compounds in 20 μL IMDM-C were added to each well. There were triplicates for each condition. Controls were pyrimethamine/sulfadiazine (standard treatment), 0.1% DMSO only, HFF only, and untreated cultures of HFF infected with 2-fold dilutions of YFP expressing parasites (called “YFP gradient” to establish amount of color from known numbers of YFP expressing parasites). Cells were incubated at 37°C for 72 h. Plates were read using a fluorimeter (Synergy H4 Hybrid Reader, BioTek) to ascertain amount of relative fluorescence units (RFU) YFP, to measure parasite burden after treatment. Data were collected using Gen5 software with IC50 calculated by graphical analysis in Excel.
An initial screening assay of 10 μM, 1 μM, 100 nM, and 10 nM of the compounds was performed. Compounds were not considered effective or pursued for further analysis if there was no inhibition of tachyzoites at 1 μM. If compounds were effective at 1 μM, another experiment was performed to assess effect at 1 μM, 500, 250, 125, 62.5, and 31.25 nM.

[2] = Kinetic solubility in PBS pH 7.4 (Chem Partners); settings: PBS, pH 7.4, aqueous buffer, kinetic from dmso stock
Experimental: The effects of changing R1 as 7-Et, 7-Me, 6-CF3, or 6-Me on activity against RH strain tachyzoites, kinetic solubility, and metabolic stability were compared. Kinetic solubility and metabolic stability in human or murine liver microsomes were measured. The hERG (human Ether-à-go-go-Related) liability was also determined. The hERG gene (KCNH2) encodes a protein Kv11.1, the alpha subunit of a potassium ion channel. This channel conducts the rapid component of the delayed rectifier potassium current, IKr, which is critical for repolarization of cardiac action potentials. A reduction in hERG currents from adverse drug effects can lead to long QT interval syndromes. These syndromes are characterized by action potential prolongation, lengthening of the QT interval on surface EKG, and an increased risk for “torsade de pointes” arrhythmias and sudden death. The MDCK-MDR1 Permeability Assay was also performed. MDCK-MDR1 refers to the ability of a compound to permeate across membranes of MDCK-MDR1 (Madin Darby canine kidney [MDCK] cells with the MDR1 gene [ABCB1], the gene encoding for the efflux protein, P-glycoprotein (P-gp)) in vitro. Assessing transport in both directions (apical to basolateral and basolateral to apical) across the cell monolayers enables an efflux ratio to be determined. […] This provides a prediction of blood brain barrier (BBB) penetration potential/permeability and efflux ratio. Effect in CACO-2 (Colon Adenocarcinoma cells) as a permeability assay and on cytochrome P450 (CYP 450) were also determined. CYP enzymes catalyze oxidative biotransformation (phase 1 metabolism) of most drugs. CYP enzymes, bind to membranes in a cell (cyto) and contain a heme pigment (chrome and P) that absorbs light at a wavelength of 450 nm when exposed to carbon monoxide. Metabolism of a drug by CYP enzymes is a major source of variability in drug effect. These were measured by Chem Partners. The relative effect on HFF and parasite enzymes also were compared.

[3] = target: T1, P. falciparum bc1 complex cytochrome c reductase (Pfbc1) (Plasmodium falciparum, UniProt Q02768); assay: Pfbc1 native assay (cytochrome c reduction by parasite extract); assay type: biochemical; settings: atovaquone 1 μM positive control, X ± S.D., N = 4
T1 construct: Parasite extract was then prepared by disruption with a sonicating probe; endogenous in cells; host or cells: P. falciparum strain 3D7 blood-stage culture, sonicated parasite extract
T1 sequence (Q02768 1-376): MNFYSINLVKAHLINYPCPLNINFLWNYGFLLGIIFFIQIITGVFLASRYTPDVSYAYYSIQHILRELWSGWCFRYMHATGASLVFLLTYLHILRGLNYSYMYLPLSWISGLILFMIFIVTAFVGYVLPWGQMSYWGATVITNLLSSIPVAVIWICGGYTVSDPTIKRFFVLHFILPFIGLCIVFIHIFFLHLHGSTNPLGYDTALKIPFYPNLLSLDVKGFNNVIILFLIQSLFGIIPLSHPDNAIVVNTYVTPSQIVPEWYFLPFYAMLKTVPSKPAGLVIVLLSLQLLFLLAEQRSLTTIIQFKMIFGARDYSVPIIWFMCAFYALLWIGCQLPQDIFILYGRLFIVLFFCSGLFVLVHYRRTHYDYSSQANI
Experimental: P. falciparum 3D7 strain were obtained from the Liverpool School of Tropical Medicine. Protease cocktail inhibitor was obtained from Roche. Bradford protein assay dye reagent was obtained from Bio-Rad. All other reagents were obtained from Sigma-Aldrich. Decylubiquinol was produced as per Fisher et al. ([2009]). In brief, 25 mg of decylubiquinone were dissolved in 400 μL of nitrogen-saturated hexane. An equal volume of aqueous 1 M sodium dithionite was added, and the mixture vortexed until colorless. The organic phase containing the decylubiquinol was collected, the solvent was evaporated under N2 and the decylubiquinol finally dissolved in 100 μL of 96% ethanol (acidified with 10 mM HCl). Concentrations of decylubiquinol was determined spectrophotometrically on a Cary 300 Bio UV/visible spectrophotometer (Varian, UK) from absolute spectra, using ε288−−320 = 8.1 mM^−1.cm^−1. Decylubiquinol was stored at −80°C and used within 2 weeks. […]
The protocol for the preparation of parasite extract was adapted from Fisher et al. ([2009]). […] The protein concentration of the parasite extract was determined by Bradford protein assay (Bio-Rad).
P. falciparum bc1 complex cytochrome c reductase (Pfbc1) activity was measured by monitoring cytochrome c reduction at 550 vs. 542 nm using a Cary 300 Bio UV-Visible Spectrophotometer (Varian, UK), using a protocol adapted from Fisher et al. ([2009]). […]

Row | SMILES | efficacy in the in vivo malaria model (P. berghei sporozoites) | IC50 [1] [µM] | solubility kinetic [2] [µM] | inhibition at 1 µM [3] [%]
1 | COc1cc2[nH]c(C)c(-c3ccc(Oc4ccc(OC(F)(F)F)cc4)cc3)c(=O)c2cc1Cl [ELQ 300] | not effective |  |  | 
2 | O=c1c2c([nH]c(CO)c1-c1ccc(Oc3ccc(OC(F)(F)F)cc3)cc1)CCCC2 [JAG099] |  | 0.38 | 4.05 (≈ 1.75 µg/mL) | 81.3 ± 6
